The experiment can be described thus: Inhibition of ADP-induced aggregation of human blood platelets in plasma. In kind it is functional.

pIC50: −log10 of the molar value. Some results are limits rather than exact numbers.

Among the data in ChEMBL document CHEMBL1126128, “Nonprostanoid prostacyclin mimetics. 3. Structural variations of the diphenyl heterocycle moiety” (J Med Chem, 1992) are IC50 values, retold here.

A word on the pIC50: it is the negative decadic logarithm of the IC50, by convention in mol/L. Read a low pIC50 as a large IC50. As to `O=C(O)CCCCCCCCCc1nnc(-c2ccccc2)n1-c1ccccc1`, where the note is “Homo sapiens, Plasma”, the negative-log IC50 (pIC50) was less than 4.09.

As to `O=C(O)COc1cccc(CCn2cnc(-c3ccccc3)c2-c2ccccc2)c1`, the negative logarithm of the IC50 (pIC50) (Homo sapiens, Plasma) is 5.30.

`O=C(O)CCCCCCCn1nc(-c2ccccc2)c2ccccc2c1=O`: the pIC50 (Homo sapiens, Plasma) is less than 4.08.

Turning to `O=C(O)CCCOc1ccc(-n2cnc(-c3ccccc3)c2-c2ccccc2)cc1`, for the setting “Homo sapiens, Plasma”, the pIC50 was 4.53.

Compound `O=C(O)CCCCCCCCOc1ncc(-c2ccccc2)c(-c2ccccc2)n1` gave a pIC50 (Homo sapiens, Plasma) of less than 4.10.

Where the note is “Homo sapiens, Plasma”, `O=C(O)COc1cccc(CCc2nc(-c3ccsc3)c(-c3ccsc3)o2)c1` gave a pIC50 of 4.77.

For the compound `O=C(O)CCCCCCCCc1nc(-c2ccccc2)c(-c2ccccc2)o1`, the negative logarithm of the IC50 (pIC50) (Homo sapiens, Plasma) is 5.18.

Compound `O=C(O)COc1cccc(CCc2nc(-c3ccccc3F)c(-c3ccccc3F)o2)c1` gave a pIC50 (Homo sapiens, Plasma) of 5.85.

Regarding `O=C(O)CCCCCCCCN1C(=O)C(c2ccccc2)N(c2ccccc2)C1=O` (stereo not drawn), the pIC50 (Homo sapiens, Plasma) was 4.53.

`O=C(O)COc1cccc(CCC(=O)NCC(c2ccccc2)c2ccccc2)c1` gave a negative-log IC50 (pIC50) (Homo sapiens, Plasma) of less than 4.10.

Compound `O=C(O)CCCCCCCCn1cc(-c2ccccc2)c(-c2ccccc2)n1` [listing 1 of 2 here] gave a pIC50 of 5.24.

Where the note is “Homo sapiens, Plasma”, `O=C(O)COc1cccc(CCc2nc(-c3ccc(Cl)cc3)c(-c3ccc(Cl)cc3)o2)c1` showed a pIC50 of 4.77.

`Cc1ccc(-c2nc(CCc3cccc(OCC(=O)O)c3)oc2-c2ccc(C)cc2)cc1`: the pIC50 (Homo sapiens, Plasma) is 6.47.

Take `O=C(O)COc1cccc(/C=C/c2nnc(-c3ccccc3)n2-c2ccccc2)c1`: where the note is “Homo sapiens, Plasma”, the pIC50 is 5.52.

`O=C(O)COc1cccc(CCn2nc(-c3ccccc3)c(-c3ccccc3)c2-c2ccccc2)c1` had a pIC50 (Homo sapiens, Plasma) of 4.61.

In turn, `O=C(O)COc1cccc(CCn2cc(-c3ccccc3)c(-c3ccccc3)n2)c1` gave a pIC50 (Homo sapiens, Plasma) of 6.06.

For `O=C(O)CCCCCCCn1cnc(-c2ccccc2)c1-c1ccccc1`, the pIC50 (Homo sapiens, Plasma) was 5.09.

For the compound `O=C(O)CCCCCCCn1nc(-c2ccccc2)c(-c2ccccc2)c(-c2ccccc2)c1=O`, the pIC50 (Homo sapiens, Plasma) is less than 4.17.

As for `Cc1nc(-c2ccccc2)c(-c2ccccc2)n1CCCCCCCC(=O)O`, the pIC50 (Homo sapiens, Plasma) is 5.36.

For the compound `O=C(O)CCCCCCCSc1cc(-c2ccccc2)c(-c2ccccc2)nn1`, the pIC50 (Homo sapiens, Plasma) was less than 4.11.

For the setting “Homo sapiens, Plasma”, `O=C(O)CCCCCCCn1nc(-c2ccccc2)c(-c2ccccc2)cc1=O` had a pIC50 of 5.39.

`O=C(O)CCCCCCCCn1nnnc1C(c1ccccc1)c1ccccc1` had a pIC50 (Homo sapiens, Plasma) of less than 4.09.

`O=C(O)CCCCCCCCn1nc(-c2ccccc2)c2ccccc2c1=O` gave a pIC50 (Homo sapiens, Plasma) of less than 4.07.

Regarding `O=C(O)CCCCCCCSc1nnc(-c2ccccc2)c(-c2ccccc2)c1-c1ccccc1`, the pIC50 (Homo sapiens, Plasma) is less than 4.19.

Take `O=C(O)CCCCCCCn1nnnc1C(c1ccccc1)c1ccccc1`: the negative logarithm of the IC50 (pIC50) (Homo sapiens, Plasma) is less than 4.08.

With `O=C(O)CCCCCCCCc1nnc(-c2ccccc2)n1-c1ccccc1`, the pIC50 (Homo sapiens, Plasma) is less than 4.07.

For the setting “Homo sapiens, Plasma”, `O=C(O)CCCCCCCCn1nc(-c2ccccc2)c(-c2ccccc2)c1-c1ccccc1` gave a pIC50 of 6.40.

Take `O=C(O)CCCCCCCCCCN(C(=O)c1ccccc1)c1ccccc1`: the pIC50 (Homo sapiens, Plasma) is less than 4.08.

Consider `O=C(O)CCCCCCCn1c(-c2ccccc2)nc(-c2ccccc2)c1-c1ccccc1`, for which, for the setting “Homo sapiens, Plasma”, the pIC50 is 5.42.

On to `O=C(O)CCCCCCCCn1cnc(-c2ccccc2)c1-c1ccccc1`, for which, where the note is “Homo sapiens, Plasma”, the pIC50 is 4.23.

In the case of `COc1ccc(-c2nc(CCc3cccc(OCC(=O)O)c3)oc2-c2ccc(OC)cc2)cc1`, for the setting “Homo sapiens, Plasma”, the pIC50 was 5.28.

Take `O=C(O)CCCCCCCCn1nnc(C(c2ccccc2)c2ccccc2)n1`: the pIC50 (Homo sapiens, Plasma) is 4.97.

For the setting “Homo sapiens, Plasma”, `O=C(O)COc1cccc(CCc2nc(-c3ccccc3)c(-c3ccccc3)[nH]2)c1` had a pIC50 of 5.54.

As to `O=C(O)COc1cccc(CCn2nc(-c3ccccc3)n(-c3ccccc3)c2=O)c1`, the pIC50 (Homo sapiens, Plasma) is 5.80.

The compound `O=C(O)COc1cccc(CCn2nc(-c3ccccc3)c(-c3ccccc3)nc2=O)c1` had a pIC50 (Homo sapiens, Plasma) of 5.68.

Take `O=C(O)CCCCCCCc1nnc(-c2ccccc2)n1-c1ccccc1`: the pIC50 (Homo sapiens, Plasma) is less than 4.06.

In turn, `O=C(O)CCCCCCCn1c(C(F)(F)F)nc(-c2ccccc2)c1-c1ccccc1` showed a pIC50 (Homo sapiens, Plasma) of 5.33.

Turning to `O=C(O)CCCCCCCSc1nnc(-c2ccccc2)c(-c2ccccc2)n1`, the pIC50 (Homo sapiens, Plasma) is less than 4.13.

`O=C(O)CCCCCCCCn1nc(-c2ccccc2)c(-c2ccccc2)c(-c2ccccc2)c1=O` had a negative-log IC50 (pIC50) (Homo sapiens, Plasma) of less than 4.17.

Compound `O=C(O)CCCCCCCCn1nc(-c2ccccc2)c(-c2ccccc2)nc1=O` had a pIC50 (Homo sapiens, Plasma) of 5.31.

Compound `O=C(O)CCCCCCCCn1nc(-c2ccccc2)c(-c2ccccc2)cc1=O` had a pIC50 (Homo sapiens, Plasma) of 5.14.

`O=C(O)CCCCCCCCn1nccc1C(c1ccccc1)c1ccccc1`: the pIC50 (Homo sapiens, Plasma) was less than 4.09.

For `O=C(O)CCCCCCCCn1cc(-c2ccccc2)c(-c2ccccc2)nc1=O`, under “Homo sapiens, Plasma”, the negative-log IC50 (pIC50) was 4.53.

With `O=C(O)CCCCCCCOc1ncc(-c2ccccc2)c(-c2ccccc2)n1`, the pIC50 (Homo sapiens, Plasma) was 4.44.

For the compound `O=C(O)CCCCCCCCn1c(-c2ccccc2)nc(-c2ccccc2)c1-c1ccccc1`, for the setting “Homo sapiens, Plasma”, the negative logarithm of the IC50 (pIC50) was 5.41.

`O=C(O)COc1ccc(/C=C/c2nnc(-c3ccccc3)n2-c2ccccc2)cc1` showed a pIC50 (Homo sapiens, Plasma) of less than 4.10.

For the compound `O=C(O)COc1cccc(CCn2nnc(C(c3ccccc3)c3ccccc3)n2)c1`, the negative logarithm of the IC50 (pIC50) (Homo sapiens, Plasma) was 5.44.

Regarding `O=C(O)COc1cccc(CCc2nnc(-c3ccccc3)n2-c2ccccc2)c1`, the pIC50 (Homo sapiens, Plasma) was 4.90.

Turning to `O=C(O)CCCCCCCCn1cc(-c2ccccc2)c(-c2ccccc2)n1` [listing 2 of 2 here], the pIC50 (Homo sapiens, Plasma) was 5.35.

Regarding `O=C(O)COc1cccc(CCn2ncc(-c3ccccc3)c2-c2ccccc2)c1`, the negative logarithm of the IC50 (pIC50) (Homo sapiens, Plasma) was 6.12.

`O=C(O)CCCCCCCCn1c(=O)c2ccccc2n(-c2ccccc2)c1=O` gave a negative-log IC50 (pIC50) (Homo sapiens, Plasma) of less than 4.09.

The compound `O=C(O)CCCCCCCn1nc(-c2ccccc2)n(-c2ccccc2)c1=O` showed a pIC50 (Homo sapiens, Plasma) of less than 4.08.

For the compound `O=C(O)COc1cccc(CCC(=O)NC(c2ccccc2)c2ccccc2)c1`, the pIC50 (Homo sapiens, Plasma) is less than 4.09.

Under “Homo sapiens, Plasma”, `CCc1ccc(-c2nc(CCc3cccc(OCC(=O)O)c3)oc2-c2ccc(CC)cc2)cc1` gave a pIC50 of 4.55.

In turn, `Cc1nc(-c2ccccc2)c(-c2ccccc2)n1CCCCCCCCC(=O)O` had a pIC50 (Homo sapiens, Plasma) of 5.52.

For the setting “Homo sapiens, Plasma”, `Cc1ccccc1-c1nc(CCc2cccc(OCC(=O)O)c2)oc1-c1ccccc1C` gave a pIC50 of 4.94.

Turning to `O=C(O)COc1ccc(CCc2nnc(-c3ccccc3)n2-c2ccccc2)cc1`, the pIC50 (Homo sapiens, Plasma) was less than 4.10.

In turn, `COc1cccc(-c2nc(CCc3cccc(OCC(=O)O)c3)oc2-c2cccc(OC)c2)c1` showed a pIC50 (Homo sapiens, Plasma) of 5.14.

Under “Homo sapiens, Plasma”, `O=C(O)COc1cccc(CCc2cc(-c3ccccc3)n(C(c3ccccc3)c3ccccc3)n2)c1` showed a pIC50 of less than 4.20.

As to `O=C(O)CCCCCCCCn1nc(-c2ccccc2)n(-c2ccccc2)c1=O`, the pIC50 (Homo sapiens, Plasma) was 5.39.

Take `O=C(O)CCCCCCCn1nc(-c2ccccc2)c(-c2ccccc2)nc1=O`: the pIC50 (Homo sapiens, Plasma) was 5.10.

Turning to `O=C(O)CCCCCCCn1nnc(C(c2ccccc2)c2ccccc2)n1`, for the setting “Homo sapiens, Plasma”, the pIC50 was 5.10.

`O=C(O)CCCCCCCCN1C(=O)NC(c2ccccc2)(c2ccccc2)C1=O`: the pIC50 (Homo sapiens, Plasma) was less than 4.11.

For the setting “Homo sapiens, Plasma”, `O=C(O)COc1cccc(Cn2cnc(-c3ccccc3)c2-c2ccccc2)c1` gave a pIC50 of less than 4.09.

`O=C(O)COc1cccc(CCn2nc(-c3ccccc3)c(-c3ccccc3)cc2=O)c1` gave a pIC50 (Homo sapiens, Plasma) of 5.72.

In turn, `O=C(O)COc1cccc(CCc2nc(-c3cccc(F)c3)c(-c3cccc(F)c3)o2)c1` had a pIC50 (Homo sapiens, Plasma) of 4.75.

Turning to `O=C(O)CCCCCCCn1cc(-c2ccccc2)c(-c2ccccc2)n1`, where the note is “Homo sapiens, Plasma”, the pIC50 is 5.86.

Regarding `O=C(O)COc1cccc(CCc2nc(-c3cccs3)c(-c3cccs3)o2)c1`, the pIC50 (Homo sapiens, Plasma) is 5.13.
